From a melting point compilation (Tetko et al.; mined from patent text by program, amines drawn as free bases though some values may be those of a salt)

Structure (SMILES)	melting point [°C]
COc1cc(CCCC2SC(=O)NC2=O)cc(OC)c1OCc1ccccc1 (configuration not stated)	101 to 102
COc1ccc(-c2ccc(C)n2CC[C@H]2C[C@H](O)CC(=O)O2)cc1 (relative stereo)	95
CCCc1ccc(-n2nc(Cl)cc2-c2ccc(S(C)(=O)=O)cc2)cc1Cl	119 to 122
C=CCN1C(=O)C2CC2(c2ccc(NC(C)=O)cc2)C1=O (configuration not stated)	113 to 116
C=CC(O)c1cc(OC)c2oc(-c3ccc(O)c(OC)c3)c(C)c2c1 (configuration not stated)	164 to 167
CCCCCCCCCCCC1=NCCO1	71 to 74
CC1=NN=C(c2ccc(NC(=O)CN(C)C)cc2)c2cc3c(cc2C1)OCO3	211 to 213
COC[C@H]1CN(c2ccc(CCCC(=O)C3CCCCC3)cc2)C(=O)O1	86
CCC(=O)Oc1ccc(/C(=C(/CC)c2ccccc2)c2ccc(/C=C/C(=O)O)cc2)cc1	158 to 160
COc1ccc(NC(=NC#N)NC(NC(=O)c2ccc(Cl)cc2)C(C)(Cl)Cl)c(OC)n1 (configuration not stated)	162 to 163
C=CCN1CCN(C2=NC3(C=CC(=O)C=C3)C(c3ccccc3)=C2)CC1	171
N#Cc1nn(-c2c(Cl)cc(C(F)(F)F)cc2Cl)c(N)c1S(=O)(=O)C(F)(F)F	219 to 222
Cc1nc(-c2ccc(F)cc2)n(-c2ccc(S(C)(=O)=O)cc2)n1	143 to 144
COc1cc2c(Nc3cccc(Cl)c3F)ncnc2cc1OC1CCN(C(=O)C2CCCO2)CC1 (configuration not stated)	193 to 194
Cc1cc2ccc(=O)oc2cc1O	253 to 254
N#Cc1ccc(Cl)c(C=NO)c1	191 to 193
CC(C)C(=O)N[C@@H](CS)C(=O)NCCSC(=O)C(C)C	125 to 127
CN(c1cccc2cc(-c3nc(CCC(N)=O)cs3)[nH]c12)S(=O)(=O)c1cccs1	200 to 201
CS(=O)(=O)OCCCC(c1ccccc1)c1ccccc1	85 to 88
O=[N+]([O-])c1cc(-c2ccncc2)ccc1O	210 to 212
COC(=O)c1ccc(C2CCC(=O)CC2)cc1	91 to 92
Brc1cnc(SCc2ccccc2)nc1	68 to 69
COCc1ccc([C@H]2CC[C@H]([C@H]3CC[C@H](C=O)CC3)CC2)cc1F	52 to 54

Structure (SMILES)	melting point [°C]
Cc1c(C)c2c(c(C)c1NC(=O)CC(C)(C)C)C(c1ccc(C(C)C)cc1)CO2 (configuration not stated)	171 to 173
CC(C)(C)OC(=O)N1CCN(C2CC2)CC1	65 to 67
O=C(O)Cc1c(C(=O)c2ccc(Cl)c(F)c2)[nH]c2cc(Cl)ccc12	179 to 182
Cc1cc(CN2CC(=O)N(c3cnn(Cc4c(C)noc4C)c3)C2=O)n(C)n1	145 to 146
CCCN(CCC)C(=O)C(CCC(N)=O)NC(=O)C=Cc1ccco1 (configuration not stated)	152 to 153
O=S1(=O)N=CN(C2CC2)c2ccc(C(F)(F)F)cc21	160 to 162
CCC1CC(=O)N(Cc2ccc(NC(C)=O)cc2)N=C1c1ccc(OC)c(OC2CCCC2)c1 (configuration not stated)	162
Oc1ccc(-c2noc3ccc(O)cc23)cc1	266 to 268
CC(O)C(C)Sc1cc(C(C)(C)C)c(O)c(C(C)(C)C)c1 (configuration not stated)	73
Cc1ccc(Cc2cnc(NCCCNc3ncccc3C)[nH]c2=O)cn1	119 to 123
CS(=O)(=O)c1ccc(C2=C(c3ccccc3)C(=O)C2(Cl)Cl)cc1	124 to 125
Cc1cccc(C(=O)Nc2c[nH]nc2C(=O)NCC(O)Cc2ccccc2)n1 (configuration not stated)	184 to 185
Oc1ccc(-c2ncc3ncc(-c4ccccc4O)cc3n2)cc1	278 to 279
Nc1c(F)c(N2CCC(C(N)c3ccccn3)C2)c(F)c2c1c(=O)c(C(=O)O)cn2C1CC1F (configuration not stated)	178 to 180
COc1ccc2cc(CC(C(C)=O)C(=O)OC(C)(C)C)ccc2c1 (configuration not stated)	63.6
Cc1cccc(-c2nc(CI)c(C)o2)c1	32
CCN(CC)CCOC(=O)c1ccc2nc3n(c(=O)c2c1)C(C)CC3=Cc1ccccc1 (configuration not stated)	125 to 130
O=C(O)COCc1ccc(C=CC(=O)N2CCc3c([nH]c4ccccc34)C2c2ccc3c(c2)OCO3)cc1 (configuration not stated)	162 to 163
CCCCOC(=O)COc1cc(F)c(-c2nn(C)c(C(F)(F)F)c2Cl)cc1[N+](=O)[O-]	65
CC1(C)COC(c2cc(F)c(F)cc2F)=N1	53 to 54
CC=Cc1cc(C(=O)c2ccccc2F)c(Cl)c(Cl)c1O	83 to 84
Nc1ccc2c(C3=CN4CCC3CC4)c[nH]c2c1	65 to 67

Now from value to compound:

melting point [°C]	Structure (SMILES)
174 to 178	O=C1c2c(Br)cccc2S(=O)(=O)N1CSc1ccccc1
186 to 189	O=C(Cc1csc(-c2cnccn2)n1)NC1CCN(Cc2ccc(Cl)c(Cl)c2)CC1
170 to 172	N#Cc1cc(C=O)ccc1-n1cnc([N+](=O)[O-])n1
91 to 93	Fc1ccc(-c2cc(Br)sc2-c2ccc(F)cc2)cc1
137 to 139	CS(=O)(=O)Nc1ccc(C(O)(C(F)(F)F)C(F)(F)F)cc1
85 to 87	CCCCCCCCCCCCC1=C(O)C(=O)c2ccccc2C1=O
85 to 86	C=Cn1c(C)c(C)c2cnnc(OCc3ccccc3)c21
104 to 105	CCn1c2cc(C)ccc2c2ccc3ccccc3c21
191 to 195	Cc1ccc(F)cc1C(=O)Nc1ccc(C(=O)N2Cc3cccn3Cc3ccccc32)c(Cl)c1
206 to 208	CCN(CC)S(=O)(=O)c1cc(C)c2c(c1)S(=O)(=O)NC(C1CCCCC1)=N2
97 to 100	Cc1ccc(C(CCN(C(C)C)C(C)C)(CCN(C(C)C)C(C)C)C(N)=O)cc1
51 to 52	COCC(C)Oc1ccc(CSc2cnn(C(C)(C)C)c(=O)c2Cl)cc1 (configuration not stated)
116	Clc1nc(Cl)c2ccsc2n1
122 to 123	C=Cc1c(N)nc(-c2ccc(C)cc2)nc1C(=O)OC
184 to 186	O=C(Nc1ccc(F)cc1F)C(=O)c1c2n(c3ccccc13)CCNCC2
127 to 128	CCCOc1cc(-c2c(C(=O)OCC)c(Cn3cncn3)nc3cc(OC)c(OC)cc23)ccc1OC
137 to 138	C#CCNC(=O)C=C(C)N
63 to 67	COC(=O)c1ccc(OCCNC(=O)C2Cc3ccccc3N2S(=O)(=O)c2ccc(-c3cccc(C(F)(F)F)c3)cc2)cc1Cl (configuration not stated)
114 to 116	C=C(OCCc1nc(C(C)C)c(Sc2cc(Cl)cc(Cl)c2)n1C)C12CC3CC(CC(C3)C1)C2
120 to 123	CP(C)(=O)CN1CCC(Oc2c(F)c(F)c(F)c(F)c2F)CC1
119 to 121	CCn1nc(Br)c([N+](=O)[O-])c1Br
140 to 143	O=C(NCc1ccccc1)c1ccnc(NC(=O)c2cccc(F)c2)c1
127 to 131	CCOC(=O)C(C)c1ccc2c(c1)sc1nc(=O)cc(-c3ccccc3)n12 (configuration not stated)
155 to 156	Cc1cccc(-n2ncc(C)c2-c2cc3cnccc3s2)n1
167 to 168	COc1nc(Cl)nc(NC(=O)NS(=O)(=O)c2ccccc2OC(F)F)n1
139 to 143	CCc1oc2ccccc2c1C(=O)NCc1ccc2c(Br)c(OC(Cc3ccccc3)C(=O)OC)ccc2c1 (configuration not stated)
150	CSc1ccc(NC(=O)N(O)C(C)C)cc1
